The target of assay [1] is T1, glutathione S-transferase (GST), His-tagged (Schistosoma japonicum, UniProt P08515).
T1 construct: His-tagged GST (Abcam ab89494); also the GST portion of N-His-GST-tagged USP7 (Lys208-Glu560)
Put plainly: DSF with isolated His-tagged GST (dose-dependent thermal shift), confirmed by SPR. The assay is classed as binding. To be noted: read-out: delta_Tm. Background: In SPR one partner is held on a chip, and binding of the other changes the refractive index at the surface.

The target in assay [2] is T2, Carbonic anhydrase II (CAII), BioVision kit #K473-100 (Homo sapiens, UniProt P00918).
T2 construct: gene CA2; kit enzyme
Put plainly: biochemical. Details: CAII esterase activity inhibition kit, absorbance at 405 nm, dose-response. The procedure:
Carbonic anhydrase II (CAII) inhibition assays were performed using a commercially available kit (BioVision, #K473-100), following the manufacturer’s protocol. For each assayed DOSEDO compound, 11 concentrations (half-log dilutions from 10 µM to 100 pM) were tested, with three technical replicates performed on each of two separate 384-well µClear® medium-binding, flat-bottom polystyrene microplates (Greiner Bio-One, #82051-294) (n = 6 for each compound concentration); for 53 only, six technical replicates (n = 6) were performed on the same plate for each compound concentration. Each reaction well contained 3 µL of compound (prepared in 10% DMSO, 90% kit buffer), 25.5 µL of enzyme/buffer mix (1.4 µL enzyme, 24.1 µL kit buffer), and 1.5 µL of substrate, for a total volume of 30 µL. Absorbance at 405 nm was read on a Molecular Devices SpectraMax i3x. In addition to the experimental conditions, a DMSO control and a no-enzyme control were each performed with three technical replicates on each plate, except for the experiment with 53, where six technical replicates for each control were performed on the same plate. The average change in absorbance for the no-enzyme control was subtracted from the change in absorbance over the same time interval for each experimental condition and the DMSO control on the same plate. For each concentration of each compound, relative activity was calculated separately for each replicate based on the average change in absorbance for the DMSO control on the same plate. Dose-response curves were fitted and IC50 values and 95% confidence intervals were calculated using GraphPad Prism v9.2.0. Curves were fitted using GraphPad Prism’s log(inhibitor) vs. response-variable slope nonlinear regression equation, with the top asymptote constrained to 100. Outliers were detected and removed via GraphPad Prism’s ROUT method, with a Q-value of 1%. Error bars (only shown if greater than the height of the symbol) represent 95% confidence intervals (Supplementary Fig. 22).

Structures are written as SMILES.

T1 sequence (P08515 2-218): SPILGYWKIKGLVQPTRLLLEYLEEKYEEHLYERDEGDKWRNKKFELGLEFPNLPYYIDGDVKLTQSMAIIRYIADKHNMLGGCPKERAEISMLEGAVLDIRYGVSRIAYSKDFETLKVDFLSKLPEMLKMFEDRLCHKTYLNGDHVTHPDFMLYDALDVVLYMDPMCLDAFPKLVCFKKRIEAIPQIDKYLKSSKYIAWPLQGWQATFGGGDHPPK

For `C=CCNc1ncc(C(=O)N2CC[C@H](c3cccc(-c4cc(F)cc(OCC(=O)O)c4)c3)[C@@H]2C(=O)NC)s1` [compound 3, 3], the ΔTm at 100 µM in assay [1] was found to be 3.3 °C.

Regarding `CNC(=O)[C@H]1C[C@@H](Oc2cccc(C3=CCNCC3)c2)CN1S(=O)(=O)c1ccc(S(N)(=O)=O)cc1` [compound 45, (2R,4R)-N-Methyl-1-((4-sulfamoylphenyl)sulfonyl)-4-(3-(1,2,3,6-tetrahydropyridin-4-yl)phenoxy)pyrrolidine-2-carboxamide], the half-maximal inhibitory concentration (IC50) in assay [2] amounted to 26 nM.

For the compound `CC(=O)N1CC2(CN(Cc3ccc(S(N)(=O)=O)o3)C[C@@H]2c2ccc(-c3ccc(F)c(CN(C)C)c3)cc2)C1` [compound 46, (R)-5-((2-Acetyl-8-(3'-((dimethylamino)methyl)-4'-fluoro-[1,1'-biphenyl]-4-yl)-2,6-diazaspiro[3.4]octan-6-yl)methyl)furan-2-sulfonamide], the 50% inhibitory concentration (IC50) in assay [2] was determined as 279 nM.

Regarding `CNC(=O)[C@H]1C[C@H](Oc2cccc(-c3ccc(S(N)(=O)=O)cc3)c2)CN1Cc1cn2c(n1)CCC2` [compound 52, (2R,4S)-1-((6,7-Dihydro-5H-pyrrolo[1,2-a]imidazol-2-yl)methyl)-N-methyl-4-((4'-sulfamoyl-[1,1'-biphenyl]-3-yl)oxy)pyrrolidine-2-carboxamide], in assay [2], half-maximal inhibition (IC50) required 64 nM.

`CC(=O)N1C[C@H](c2ccc(-c3cccc(S(N)(=O)=O)c3)cc2)C2(C1)CN(C(=O)c1nc(C)n3c1CCCC3)C2` [compound 53, (R)-4'-(6-Acetyl-2-(3-methyl-5,6,7,8-tetrahydroimidazo[1,5-a]pyridine-1-carbonyl)-2,6-diazaspiro[3.4]octan-8-yl)-[1,1'-biphenyl]-3-sulfonamide] displayed an IC50 in assay [2] of more than 10000 nM.

Compound `CC(=O)N1C[C@@H](c2ccc(-c3ccc(S(N)(=O)=O)cc3)cc2)C2(C1)CN(C(=O)C(C)Oc1cccc(C#N)c1)C2` (stereo partly drawn) [compound 54, 4'-((8S)-6-Acetyl-2-(2-(3-cyanophenoxy)propanoyl)-2,6-diazaspiro[3.4]octan-8-yl)-[1,1'-biphenyl]-4-sulfonamide] displayed an IC50 in assay [2] of 34 nM.

With `C[C@H]1CN([C@@H](C)CO)S(=O)(=O)c2ccc(-c3ccc(S(N)(=O)=O)cc3)cc2O[C@H]1CN(C)C(=O)c1cnoc1-c1ccco1` [compound 57, 5-(Furan-2-yl)-N-(((4S,5R)-2-((S)-1-hydroxypropan-2-yl)-4-methyl-1,1-dioxido-8-(4-sulfamoylphenyl)-2,3,4,5-tetrahydrobenzo[b][1,4,5]oxathiazocin-5-yl)methyl)-N-methylisoxazole-4-carboxamide], the 50% inhibitory concentration (IC50) in assay [2] worked out at 31 nM.

Regarding `C[C@H](CO)N1C[C@H](C)[C@@H](CN(C)C(=O)c2coc(S(C)(=O)=O)c2)Oc2cc(-c3ccc(S(N)(=O)=O)cc3)ccc2S1(=O)=O` [compound 58, N-(((4S,5S)-2-((R)-1-Hydroxypropan-2-yl)-4-methyl-1,1-dioxido-8-(4-sulfamoylphenyl)-2,3,4,5-tetrahydrobenzo[b][1,4,5]oxathiazocin-5-yl)methyl)-N-methyl-5-(methylsulfonyl)furan-3-carboxamide], the IC50 in assay [2] was 17 nM.

`C[C@@H]1CN([C@@H](C)CO)S(=O)(=O)c2ccc(-c3ccc(S(N)(=O)=O)cc3)cc2O[C@H]1CN(C)C(=O)c1cnoc1-c1ccco1` [compound 59, 5-(Furan-2-yl)-N-(((4R,5R)-2-((S)-1-hydroxypropan-2-yl)-4-methyl-1,1-dioxido-8-(4-sulfamoylphenyl)-2,3,4,5-tetrahydrobenzo[b][1,4,5]oxathiazocin-5-yl)methyl)-N-methylisoxazole-4-carboxamide] had an IC50 in assay [2] of 16 nM.

One may read the IC50 as the concentration at which inhibition is half-maximal. Read a low IC50 as higher potency.

The values above are taken from paper PMC10427684, “Diversity-oriented synthesis encoded by deoxyoligonucleotides” (Nature Communications, 2023).
